Experiments:
[1] = molecular target: Ca2+ channel (L, dihydropyridine site) (Rattus norvegicus, UniProt P22002); experiment: Off-target screening (Eurofins Cerep), Ca2+ channel; format: binding
Source text: Off-target interactions are binding of tracers to other components on the cell surface than the actual target site. These non-specific interactions are often of low affinity and easily missed, but can have significant effects. We outsourced the screening for in vitro for off-target interactions of cRGD-ZW800-1 to Eurofins Cerep SA, Le bois l’Evêque, France. They assessed the percentage of inhibition of a reference compound in 44 selected targets, including G protein-coupled receptors (GPCRs), transporters, ion channels, nuclear receptors, kinases and other non-kinase enzymes. These targets were recommended by four major pharmaceutical companies. The complete list is included in Supplementary Table 1 of the Supplementary Data. Each assay was performed twice using 10 μM cRGD-ZW800-1 and a reference compound. Inhibition higher than 50% was considered to represent a significant effect of cRGD-ZW800-1. Results showing between 20% and 50% were considered weak to moderate effects, while lower than 20% was not considered significant and mostly attributable to variability of the signal around the control level.

HT-29 colorectal tumors = experiment: NIR fluorescence imaging, HT-29 colorectal tumors, dose-ranging; format: in vivo, mice
Method: (§1) To induce subcutaneous tumors, colorectal cancer cells (HT-29) were injected at 4 sites on the back (500,000 cells per spot). Subsequently, these colorectal tumor cells were transplanted on the colon of other mice, as described by Tseng et al.. Approximately 500,000 pancreatic tumor cells (BxPC-3) were injected into the pancreas, as previously described by Kim et al.. Approximately 40,000 oral tumor cells (OSC-19) were injected in the tongue, as previously described by van Driel et al.. Approximately 500,000 breast tumor cells (MCF-7) were injected in both sides of the mammary fat pad to induce breast cancer tumors.
(§2) All animals were imaged using a Pearl® imager (LI-COR, Lincoln, NE) and an original FLARE® prototype. Animals with HT-29 tumors were imaged at 4 and 24 h post injection; animals with BxPC-3 and OSC-19 tumors at 4 h only. Animals with MCF-7 tumors were imaged at 0.5, 1, 2, 4, 6, 8, 24 and 48 h post injection. […] TBRs were calculated by dividing the tumor signal by the background signal. […]
(§3) Mice were administered with 0.25 (HT-29 model only), 1.0, 10, or 30 nmol cRGD-ZW800-1 to evaluate tumor signals, biodistribution, and to calculate TBRs (n = 3 per dose group). At 4 h (BxPC-3 model) and 24 h (HT-29 model) after injection, mice were fully dissected and fluorescence intensity of their organs was measured.

Muscarinic M3 = molecular target: T1, Muscarinic M3 (Homo sapiens, UniProt P20309); experiment: Off-target screening (Eurofins Cerep), M3; format: binding
T1 construct: Eurofins Cerep SA (contract screening)

tumors = experiment: Estimated concentration inside tumors in humans; settings: after administering 63 μg/kg, assuming tumor uptake comparable to RGD-PET tracer
[2] = molecular target: T2, GR (steroid nuclear receptor) (Homo sapiens, UniProt P04150); experiment: Off-target screening (Eurofins Cerep), GR; format: binding
T2 construct: Eurofins Cerep SA (contract screen)

dopamine receptor D2S = molecular target: T3, dopamine receptor D2S (Homo sapiens, UniProt P14416); experiment: Off-target screening (Eurofins Cerep), D2S; format: binding
T3 construct: Eurofins Cerep SA (contract screening)

MCF-7 breast tumors = experiment: NIR fluorescence imaging, MCF-7 breast tumors; format: in vivo, mice; settings: 10 nmol, Pearl
Method: as §1
All animals were imaged using a Pearl® imager (LI-COR, Lincoln, NE) and an original FLARE® prototype. Animals with HT-29 tumors were imaged at 4 and 24 h post injection; animals with BxPC-3 and OSC-19 tumors at 4 h only. Animals with MCF-7 tumors were imaged at 0.5, 1, 2, 4, 6, 8, 24 and 48 h post injection. The specific and control images were normalized and regions of interest (ROIs) were selected using associated software. TBRs were calculated by dividing the tumor signal by the background signal. Based on our experience a TBR ≥ 2 is sufficient to discriminate between tumor and surrounding tissue.
Mice bearing orthotopic OSC-19 tumors (n = 2) were administrated with 10 nmol cRGD-ZW800-1 and imaged at 4 h. Mice bearing orthotopic MCF-7 tumors (n = 2) were injected with 10 nmol cRGD-ZW800-1 and imaged at 0.5, 1, 2, 4, 6, 8, 24, and 48 h post injection. One mouse with 2 MCF-7 tumors was administered with 10 nmol cRGD-ZW800-1 and imaged at 4 h post injection while its skin was partially removed. In vivo TBRs were calculated by dividing the mean fluorescence signals of tumors by the mean of surrounding tissue. Ex vivo organ-to-tumor ratios were calculated by dividing the fluorescence intensity of the organ by that of the tumor.

Adrenergic α2A = molecular target: T4, Adrenergic α2A (Homo sapiens, UniProt P08913); experiment: Off-target screening (Eurofins Cerep), α2A; format: binding
T4 construct: Eurofins Cerep SA (contract screening)

Acetylcholinesterase = molecular target: T5, Acetylcholinesterase (Homo sapiens, UniProt P22303); experiment: Off-target screening (Eurofins Cerep), acetylcholinesterase; format: biochemical
T5 construct: Eurofins Cerep SA (contract screen)

[3] = molecular target: AR (steroid nuclear receptor) (Homo sapiens, UniProt P10275); experiment: Off-target screening (Eurofins Cerep), AR; format: binding
Adenosine A2A = molecular target: T6, Adenosine A2A (Homo sapiens, UniProt P29274); experiment: Off-target screening (Eurofins Cerep), A2A; format: binding
T6 construct: Eurofins Cerep SA (contract screening)

BxPC-3 pancreatic tumors = experiment: NIR fluorescence imaging, BxPC-3 pancreatic tumors; format: in vivo, mice; settings: all three dose groups (1.0, 10, 30 nmol), FLARE and Pearl, skin as background
Method: as §1, §2, §3

HT-29 tumors and organs = experiment: Ex vivo biodistribution, HT-29 model; format: in vivo, mice; settings: 24 h post injection
Method: After imaging, mice were sacrificed and OSC-19 and BxPC-3 tumors were quickly frozen in isopentane at -80°C for histological evaluation. Tissues were sectioned at 10 μm and fluorescence imaging was performed using fluorescence microscopy (Nikon eclipse e800, Nikon, Amsterdam, The Netherlands). All histologic sections were stained with standard hematoxylin-eosin stain (HE). Organs of mice with colorectal and pancreatic cancer were collected and imaged using the Pearl® to evaluate biodistribution.
as §3
Mice bearing orthotopic OSC-19 tumors (n = 2) were administrated with 10 nmol cRGD-ZW800-1 and imaged at 4 h. Mice bearing orthotopic MCF-7 tumors (n = 2) were injected with 10 nmol cRGD-ZW800-1 and imaged at 0.5, 1, 2, 4, 6, 8, 24, and 48 h post injection. […] In vivo TBRs were calculated by dividing the mean fluorescence signals of tumors by the mean of surrounding tissue. Ex vivo organ-to-tumor ratios were calculated by dividing the fluorescence intensity of the organ by that of the tumor.

[4] = 10 μM cRGD-ZW800-1, format H, Ag, performed twice, read-out: % Inhibition of Control Specific Binding
[5] = 10 μM, mean of 2, read-out: % of Control Specific Binding Mean
[6] = 10 μM cRGD-ZW800-1, format H, An, performed twice, read-out: % Inhibition of Control Specific Binding

T4 sequence (P08913 whole entry): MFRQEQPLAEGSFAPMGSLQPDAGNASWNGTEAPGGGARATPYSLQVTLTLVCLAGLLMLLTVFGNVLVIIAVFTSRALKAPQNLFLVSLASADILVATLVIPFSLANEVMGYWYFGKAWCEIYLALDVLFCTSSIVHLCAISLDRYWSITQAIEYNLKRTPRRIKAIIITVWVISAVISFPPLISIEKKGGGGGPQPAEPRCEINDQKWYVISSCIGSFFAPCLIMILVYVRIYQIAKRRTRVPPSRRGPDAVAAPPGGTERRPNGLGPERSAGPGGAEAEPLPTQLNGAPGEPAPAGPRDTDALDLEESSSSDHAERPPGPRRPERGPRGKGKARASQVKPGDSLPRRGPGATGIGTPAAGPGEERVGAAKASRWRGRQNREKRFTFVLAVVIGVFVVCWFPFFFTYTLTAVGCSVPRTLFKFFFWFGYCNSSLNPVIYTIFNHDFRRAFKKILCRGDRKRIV
T2 sequence (P04150 whole entry): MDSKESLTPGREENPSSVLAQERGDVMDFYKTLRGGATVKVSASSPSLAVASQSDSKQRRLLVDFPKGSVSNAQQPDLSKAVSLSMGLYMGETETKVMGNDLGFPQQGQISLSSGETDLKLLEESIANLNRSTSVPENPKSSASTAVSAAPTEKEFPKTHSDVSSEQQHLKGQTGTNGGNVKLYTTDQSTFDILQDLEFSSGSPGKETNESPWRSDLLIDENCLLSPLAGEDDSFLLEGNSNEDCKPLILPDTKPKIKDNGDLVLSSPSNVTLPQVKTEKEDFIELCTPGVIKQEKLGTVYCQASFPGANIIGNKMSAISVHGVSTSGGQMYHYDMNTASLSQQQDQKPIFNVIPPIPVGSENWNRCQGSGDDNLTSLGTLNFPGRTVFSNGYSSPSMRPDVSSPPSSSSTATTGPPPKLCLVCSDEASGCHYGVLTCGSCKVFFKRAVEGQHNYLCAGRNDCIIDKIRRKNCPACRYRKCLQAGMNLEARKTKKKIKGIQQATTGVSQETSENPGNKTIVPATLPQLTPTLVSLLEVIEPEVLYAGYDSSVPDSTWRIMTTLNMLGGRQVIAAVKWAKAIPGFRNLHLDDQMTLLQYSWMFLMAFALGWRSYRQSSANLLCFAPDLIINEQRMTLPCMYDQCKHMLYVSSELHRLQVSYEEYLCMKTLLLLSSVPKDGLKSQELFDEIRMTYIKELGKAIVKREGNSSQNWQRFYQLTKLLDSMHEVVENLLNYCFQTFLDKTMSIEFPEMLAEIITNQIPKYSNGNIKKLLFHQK
T3 sequence (P14416 1-414 isoform P14416-2): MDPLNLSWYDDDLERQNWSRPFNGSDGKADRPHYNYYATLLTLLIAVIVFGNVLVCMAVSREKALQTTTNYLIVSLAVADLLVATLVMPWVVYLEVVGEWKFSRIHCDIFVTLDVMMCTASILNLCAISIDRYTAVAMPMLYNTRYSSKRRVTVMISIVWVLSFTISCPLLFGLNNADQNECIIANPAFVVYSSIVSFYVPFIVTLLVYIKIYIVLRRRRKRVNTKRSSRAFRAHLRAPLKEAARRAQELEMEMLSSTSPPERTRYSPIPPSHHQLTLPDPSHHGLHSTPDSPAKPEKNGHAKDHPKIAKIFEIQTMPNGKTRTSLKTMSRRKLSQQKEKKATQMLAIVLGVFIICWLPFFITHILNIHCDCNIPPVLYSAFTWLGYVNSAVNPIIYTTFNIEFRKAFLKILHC
T5 sequence (P22303 32-614): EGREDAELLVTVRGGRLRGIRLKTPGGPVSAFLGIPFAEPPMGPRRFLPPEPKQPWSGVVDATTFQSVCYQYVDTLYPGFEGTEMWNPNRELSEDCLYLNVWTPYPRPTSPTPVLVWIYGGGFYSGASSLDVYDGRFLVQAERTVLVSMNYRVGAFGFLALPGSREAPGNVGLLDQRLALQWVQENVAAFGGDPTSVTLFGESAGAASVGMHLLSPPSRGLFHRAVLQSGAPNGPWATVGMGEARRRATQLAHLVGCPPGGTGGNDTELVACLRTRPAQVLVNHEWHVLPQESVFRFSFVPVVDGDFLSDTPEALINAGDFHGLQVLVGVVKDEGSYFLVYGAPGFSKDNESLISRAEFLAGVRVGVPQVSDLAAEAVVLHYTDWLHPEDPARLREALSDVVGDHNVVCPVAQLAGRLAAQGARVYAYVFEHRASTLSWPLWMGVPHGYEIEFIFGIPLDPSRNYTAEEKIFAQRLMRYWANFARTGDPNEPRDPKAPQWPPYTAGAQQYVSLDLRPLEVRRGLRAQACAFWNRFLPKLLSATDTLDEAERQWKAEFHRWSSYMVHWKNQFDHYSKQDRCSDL
Sequence of Ca2+ channel (L, dihydropyridine site) (P22002 whole entry): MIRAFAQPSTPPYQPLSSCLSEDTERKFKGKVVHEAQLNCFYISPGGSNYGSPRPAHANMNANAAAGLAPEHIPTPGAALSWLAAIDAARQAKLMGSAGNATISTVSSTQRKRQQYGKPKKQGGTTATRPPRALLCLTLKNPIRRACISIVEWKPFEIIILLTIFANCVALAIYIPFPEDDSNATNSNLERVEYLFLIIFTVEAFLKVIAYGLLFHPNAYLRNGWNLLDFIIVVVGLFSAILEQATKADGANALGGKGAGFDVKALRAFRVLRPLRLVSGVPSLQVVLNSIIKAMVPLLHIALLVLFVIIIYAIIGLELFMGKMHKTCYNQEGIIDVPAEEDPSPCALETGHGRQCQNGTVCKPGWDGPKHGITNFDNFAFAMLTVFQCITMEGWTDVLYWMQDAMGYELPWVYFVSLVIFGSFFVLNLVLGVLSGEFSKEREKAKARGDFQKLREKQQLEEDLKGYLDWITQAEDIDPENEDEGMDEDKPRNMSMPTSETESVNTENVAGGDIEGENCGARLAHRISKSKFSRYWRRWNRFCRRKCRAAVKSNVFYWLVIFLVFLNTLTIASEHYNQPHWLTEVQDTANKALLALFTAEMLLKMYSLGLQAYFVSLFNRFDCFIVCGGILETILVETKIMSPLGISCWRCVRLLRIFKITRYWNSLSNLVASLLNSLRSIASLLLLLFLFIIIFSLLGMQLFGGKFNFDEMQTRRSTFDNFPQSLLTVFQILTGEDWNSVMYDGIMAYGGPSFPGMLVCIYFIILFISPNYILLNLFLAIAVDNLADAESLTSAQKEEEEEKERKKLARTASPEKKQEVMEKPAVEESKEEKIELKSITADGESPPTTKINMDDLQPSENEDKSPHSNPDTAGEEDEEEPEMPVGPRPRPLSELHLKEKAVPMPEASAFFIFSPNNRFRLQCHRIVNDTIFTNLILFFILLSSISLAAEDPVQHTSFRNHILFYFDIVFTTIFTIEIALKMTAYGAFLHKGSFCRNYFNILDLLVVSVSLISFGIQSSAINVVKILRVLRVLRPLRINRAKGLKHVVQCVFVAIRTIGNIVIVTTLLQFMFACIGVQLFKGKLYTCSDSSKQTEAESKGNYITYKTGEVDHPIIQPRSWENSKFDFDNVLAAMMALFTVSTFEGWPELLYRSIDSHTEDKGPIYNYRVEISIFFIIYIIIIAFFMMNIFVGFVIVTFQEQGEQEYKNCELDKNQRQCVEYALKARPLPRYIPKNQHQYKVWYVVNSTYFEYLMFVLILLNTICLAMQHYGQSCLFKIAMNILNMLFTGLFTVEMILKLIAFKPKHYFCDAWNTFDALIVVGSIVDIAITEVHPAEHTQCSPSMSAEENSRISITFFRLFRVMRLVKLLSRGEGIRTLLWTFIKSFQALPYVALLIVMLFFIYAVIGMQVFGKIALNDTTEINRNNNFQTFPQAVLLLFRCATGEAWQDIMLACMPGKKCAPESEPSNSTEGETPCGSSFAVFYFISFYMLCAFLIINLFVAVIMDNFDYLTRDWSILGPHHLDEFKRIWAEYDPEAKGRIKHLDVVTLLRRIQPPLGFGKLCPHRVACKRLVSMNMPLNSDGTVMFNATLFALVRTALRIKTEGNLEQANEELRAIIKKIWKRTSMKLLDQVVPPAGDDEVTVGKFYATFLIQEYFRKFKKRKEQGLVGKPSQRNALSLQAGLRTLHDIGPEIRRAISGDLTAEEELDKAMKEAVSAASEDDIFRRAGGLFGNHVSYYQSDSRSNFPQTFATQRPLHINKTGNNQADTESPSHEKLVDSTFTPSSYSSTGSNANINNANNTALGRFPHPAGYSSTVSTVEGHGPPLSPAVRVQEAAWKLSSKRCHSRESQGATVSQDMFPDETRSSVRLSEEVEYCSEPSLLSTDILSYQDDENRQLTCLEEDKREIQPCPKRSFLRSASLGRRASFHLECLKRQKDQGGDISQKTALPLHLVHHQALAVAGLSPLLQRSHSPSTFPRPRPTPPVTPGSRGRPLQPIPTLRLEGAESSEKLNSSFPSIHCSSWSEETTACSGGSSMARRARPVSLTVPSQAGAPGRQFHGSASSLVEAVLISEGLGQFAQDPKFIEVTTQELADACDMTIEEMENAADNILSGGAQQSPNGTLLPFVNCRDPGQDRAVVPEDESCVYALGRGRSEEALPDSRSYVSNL
T1 sequence (P20309 whole entry): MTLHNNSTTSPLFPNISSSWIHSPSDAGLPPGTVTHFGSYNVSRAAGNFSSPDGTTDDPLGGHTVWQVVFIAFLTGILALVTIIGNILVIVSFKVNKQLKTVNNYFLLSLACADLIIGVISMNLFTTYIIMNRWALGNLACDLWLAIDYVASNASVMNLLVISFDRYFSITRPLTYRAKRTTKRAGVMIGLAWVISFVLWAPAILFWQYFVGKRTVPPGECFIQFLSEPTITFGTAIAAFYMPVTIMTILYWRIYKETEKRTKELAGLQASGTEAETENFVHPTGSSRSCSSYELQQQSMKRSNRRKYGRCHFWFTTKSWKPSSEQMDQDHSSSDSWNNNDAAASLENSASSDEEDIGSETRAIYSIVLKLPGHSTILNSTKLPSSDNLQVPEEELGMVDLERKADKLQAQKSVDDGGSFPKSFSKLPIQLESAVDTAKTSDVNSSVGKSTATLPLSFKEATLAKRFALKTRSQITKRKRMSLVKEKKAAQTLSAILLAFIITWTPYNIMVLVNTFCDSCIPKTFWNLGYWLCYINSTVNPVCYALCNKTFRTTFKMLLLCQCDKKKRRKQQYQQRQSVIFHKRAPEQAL

`CC1(C)C(/C=C/C2=C(Oc3ccc(CCC(=O)NCCCC[C@@H]4NC(=O)[C@@H](Cc5ccc(O)cc5)NC(=O)[C@H](CC(=O)O)NC(=O)CNC(=O)[C@H](CCCNC(=N)N)NC4=O)cc3)C(=C/C=C3/N(CCC[N+](C)(C)C)c4ccc(S(=O)(=O)O)cc4C3(C)C)/CCC2)=[N+](CCC[N+](C)(C)C)c2ccc(S(=O)(=O)O)cc21` [cRGD-ZW800-1] was tested. Which inhibition at 10 µM ([1]; Ca2+ channel (L, dihydropyridine site), 10 μM cRGD-ZW800-1, format An, performed twice, read-out: % Inhibition of Control Specific Binding) did it give?
Its inhibition at 10 µM is 15%.

And the remaining activity at 10 µM ([1]; Ca2+ channel, 10 μM, mean of 2, read-out: % of Control Specific Binding Mean)?
The remaining activity at 10 µM was 84.6%.

And the “TBRs at 4 and 24 h post injection” value (HT-29 colorectal tumors; HT-29, 1, 10 and 30 nmol dose groups, n = 3 per dose group)?
The value was > 2.

What about the optimal dose (HT-29 colorectal tumors; mice, doses of 0.25, 1.0, 10, 30 nmol explored, Pearl and FLARE) of the same compound?
The optimal dose was 10 nmol.

And the inhibition at 10 µM (Muscarinic M3; read-out: % Inhibition of Control Specific Binding)?
The inhibition at 10 µM was -7%.

And the remaining activity at 10 µM (Muscarinic M3; read-out: % of Control Specific Binding Mean)?
The remaining activity at 10 µM was 107%.

What about the concentration inside tumors (tumors) of the same compound?
Its concentration inside tumors is “approximately 0.2 μM”.

And the inhibition at 10 µM [2, 4]?
Its inhibition at 10 µM is 10%.

What about the remaining activity at 10 µM [2, 5] of the same compound?
The remaining activity at 10 µM was 89.9%.

And the inhibition at 10 µM (dopamine receptor D2S; [6])?
The inhibition at 10 µM was 22%.

And the remaining activity at 10 µM (dopamine receptor D2S; [5])?
The remaining activity at 10 µM was 78.2%.

And the “decrease of fluorescence intensity of tumors at 4 h compared to 0.5 h post injection” value (MCF-7 breast tumors)?
The value was 61% ± 8%.

What about the “decrease of fluorescence intensity of tumors at 24 h compared to 0.5 h post injection” value (MCF-7 breast tumors) of the same compound?
The value was 77% ± 4%.

What about the “TBR at 4 h post injection, with skin” value (MCF-7 breast tumors; single mouse with 2 tumors) of the same compound?
The value was 1.5 ± 0.1.

What about the “TBR at 4 h post injection, skin removed” value (MCF-7 breast tumors; single mouse with 2 tumors, p = 0.02) of the same compound?
The value was 3.0 ± 0.3.

And the inhibition at 10 µM (Adrenergic α2A; [6])?
The inhibition at 10 µM was -4%.

What about the remaining activity at 10 µM (Adrenergic α2A; [5]) of the same compound?
Its remaining activity at 10 µM is 104%.

And the inhibition at 10 µM (Acetylcholinesterase; 10 μM cRGD-ZW800-1, format H, performed twice, read-out: % Inhibition of Control Specific Binding)?
Its inhibition at 10 µM is 2%.

What about the remaining activity at 10 µM (Acetylcholinesterase; [5]) of the same compound?
Its remaining activity at 10 µM is 98.4%.

What about the inhibition at 10 µM [3, 4] of the same compound?
Its inhibition at 10 µM is 9%.

And the remaining activity at 10 µM [3, 5]?
The remaining activity at 10 µM was 91.4%.

And the inhibition at 10 µM (Adenosine A2A; [4])?
Its inhibition at 10 µM is 8%.

What about the remaining activity at 10 µM (Adenosine A2A; [5]) of the same compound?
Its remaining activity at 10 µM is 91.9%.

What about the “TBRs at 4 h post injection” value (BxPC-3 pancreatic tumors) of the same compound?
Its value is > 2.

What about the “fluorescence signal in kidneys (all dose groups), liver and skin (only 10 and 30 nmol) compared to tumor” value (HT-29 tumors and organs) of the same compound?
The value was “higher”.

And the “tumor fluorescence relative to lungs, pancreas, muscle, gallbladder, brain, and blood” value (HT-29 tumors and organs; all dose groups)?
The value was “more than twice as fluorescent”.

From publication PMC5400565, “Real-time near-infrared fluorescence imaging using cRGD-ZW800-1 for intraoperative visualization of multiple cancer types” (Oncotarget, 2017)
